Source: PubChem BioAssay AID977624 (Broad Institute, 2014)
Inconclusive results are not listed. Active and inactive are the calls of the source.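 How the source made its calls: active means compound lowering the normal-ribosome reporter at least twice as much as the humanized-ribosome reporter, growth loss under a set limit; inconclusive means no clear call, values can overlap the other calls; inactive means the rest.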

Test system: E. coli wild-type GFP strain growth, fluorescence, 24 h
Experiment: growth inhibition of wild-type GFP E. coli, dose response, h34 mutant RFP, cherry-pick (AID 977624);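 further: wild-type GFP strain co-cultured with humanized h34 ribosome RFP strain in same well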

Row | SMILES | AC50
1 | Cc1ccc(NC(=O)C2CCN(S(=O)(=O)c3ccc4c(c3)NC(=O)CO4)CC2)cc1 | > 100 µM (inactive)
2 | Cc1n[nH]c(C)c1Sc1ccccc1[N+](=O)[O-] | > 100 µM (inactive)
3 | COc1ccccc1-c1ccc(SCc2cccc(F)c2)nn1 | > 100 µM (inactive)
4 | CCOC(=O)c1c(CS(=O)(=O)c2ccccc2)n(C)c2cc(Br)c(O)cc12 | > 100 µM (inactive)
5 | COc1cc(NC(=O)CSCc2ccc(Cl)cc2Cl)c(C(=O)O)cc1OC | > 100 µM (inactive)
6 | Cc1c(C(=O)NCCSCc2cccc(C(F)(F)F)c2)cnn1-c1ccc(F)cc1 | > 100 µM (inactive)
7 | COC(=O)c1c(-c2ccc(OC)cc2)sc2cc(OC)c(OC)cc12 | > 100 µM (inactive)
8 | COC(=O)COc1ccc(Cl)cc1C1Nc2ccccc2C(=O)N1c1ccc(OC)cc1 (stereo not drawn) | > 100 µM (inactive)
9 | NS(=O)(=O)c1cccc(NC(=O)CSc2nnc(-c3ccccc3F)n2C2CC2)c1 | > 100 µM (inactive)
10 | CCCN(CC1CC1)C(=O)CSc1ncnc2sccc12 | > 100 µM (inactive)
11 | COc1ccc2[nH]cc(CCNC(=O)C3CC(=O)N(c4ccc(Cl)cc4)C3)c2c1 (stereo not drawn) | > 100 µM (inactive)
12 | O=C(O)c1ccc(-c2noc(-c3cccc(Cl)c3)n2)cc1 | > 100 µM (inactive)
13 | Cc1cc(OCCCCOc2ccc(S(N)(=O)=O)c(C)c2)ccc1S(N)(=O)=O | > 100 µM (inactive)
14 | O=S(=O)(c1ccccc1)N1C[C@H]2[C@@H](c3ccccc31)[C@@H](CO)N2Cc1ccccc1 | > 100 µM (inactive)
15 | Cc1ccc(S(=O)(=O)Nc2ccccc2CNc2cccc(C)n2)cc1 | > 100 µM (inactive)
16 | C[C@@H]1CN([C@H](C)CO)C(=O)c2cccc(NC(=O)c3ccncc3)c2O[C@@H]1CN(C)S(=O)(=O)c1ccc(Cl)cc1 | > 100 µM (inactive)
17 | Cc1ccc(C2NC(=O)c3[nH]nc(-c4ccccc4)c32)cc1 (stereo not drawn) | > 100 µM (inactive)
18 | COC(=O)c1cccc(CN2C(=O)SC(Nc3ccc(C)cc3)C2=O)c1 (stereo not drawn) | > 100 µM (inactive)
19 | C[C@]12CCC3C(CC[C@H]4C[C@@H](O)CC[C@]34C)[C@H]1CC[C@H]2O (stereo partly drawn) | > 100 µM (inactive)
20 | N#Cc1ccsc1NC(=O)CSc1nnnn1-c1ccc(O)cc1 | > 100 µM (inactive)
21 | CC1(C(=O)NS(=O)(=O)c2ccc3c(c2)CCO3)CCN1C(=O)c1ccccc1CCc1ccccc1 (stereo not drawn) | > 100 µM (inactive)
22 | O=C(O)CCN(Cc1ccccc1)S(=O)(=O)c1ccc(Cl)cc1F | > 100 µM (inactive)
23 | CCOc1cccc(-c2cc(-c3n[nH]c(=S)n3CC)c3ccccc3n2)c1 | > 100 µM (inactive)
24 | Nc1cc([N+](=O)[O-])ccc1Nc1ccc(O)cc1 | > 100 µM (inactive)

Row | SMILES | AC50
25 | COc1ccc(NC(=O)Nc2cccc3c2O[C@@H](CN(C)S(=O)(=O)c2ccc(Cl)cc2)[C@H](C)CN([C@H](C)CO)C3=O)cc1 | > 100 µM (inactive)
26 | COc1ccc(C(=O)Nc2ccc3oc(Cc4ccc(Cl)cc4)nc3c2)cc1OC | > 100 µM (inactive)
27 | COc1ccc(C(=O)NCCc2ccccn2)cc1S(=O)(=O)Nc1ccc(Br)cc1 | > 100 µM (inactive)
28 | CCCCC(=O)N1CCN(c2nc3ccc(Br)cc3s2)CC1 | > 100 µM (inactive)
29 | O=C(Nc1ccc(C(=O)Nc2ccccc2Cl)cc1)c1cccnc1 | > 100 µM (inactive)
30 | COc1ccc(Nc2nc(N)c([N+](=O)[O-])c(N3CCCC3)n2)cc1 | > 100 µM (inactive)
31 | Cc1cnc(NC(=O)Cc2c[nH]c3ccccc23)s1 | > 100 µM (inactive)
32 | O=C(Cn1c2[n+](c3ccc(C(F)(F)F)cc31)CCCCC2)c1ccc2c(c1)OCCO2 | > 100 µM (inactive)
33 | CC(OC(=O)CCc1nc2ccccc2c(=O)[nH]1)C(=O)c1ccc(Br)cc1 (stereo not drawn) | > 100 µM (inactive)
34 | CSc1ccccc1NC(=O)c1ccccc1N(Cc1ccccc1)S(C)(=O)=O | > 100 µM (inactive)
35 | CN(C)C(=O)C1C2NC(=S)N(c3cccc(Cl)c3)C1(C)Oc1ccc(Cl)cc12 (stereo not drawn) | > 100 µM (inactive)
36 | CS(=O)(=O)c1cccc(C(=O)Nc2cccc(-c3nc4ccccc4[nH]3)c2)c1 | > 100 µM (inactive)
37 | CC1(C(=O)NS(=O)(=O)c2cccc(C#N)c2)CCN1C(=O)C1(c2ccc(Cl)cc2)CCC1 (stereo not drawn) | > 100 µM (inactive)
38 | CC(C)(CC(=O)O)CC(=O)NCc1c(Cl)cccc1Sc1ccc(Cl)cc1 | > 100 µM (inactive)
39 | NC(=O)c1ccsc1NC(=O)COC(=O)CCOc1ccccc1 | > 100 µM (inactive)
40 | COc1ccc(-c2noc(=O)n2Cc2ccccc2Cl)cc1 | > 100 µM (inactive)
41 | CCCCNC(=O)C[C@@H]1C[C@@]2(C(=O)OC)CCCCC=C2N(Cc2ccccc2)C1=O | > 100 µM (inactive)
42 | Cc1oc(-c2ccc(-c3ccccc3)cc2)nc1CN(C)C1CCOC1 (stereo not drawn) | > 100 µM (inactive)
43 | Fc1cccc(Cc2c(-c3ccco3)nc3c4ccccc4ccn23)c1 | > 100 µM (inactive)
44 | O=C(CCCOc1ccc(Cl)cc1Cl)Nc1ccccc1C(=O)O | > 100 µM (inactive)
45 | Cc1ccsc1C(=O)OCC(=O)N1CCc2ccccc2C1 | > 100 µM (inactive)
46 | Cc1ccc(NC(=O)CCCSc2ccccc2)cc1S(=O)(=O)N1CCOCC1 | > 100 µM (inactive)
47 | CC(=O)Oc1ccc(N(C(C)=O)S(=O)(=O)c2ccc(C)cc2)c2ccccc12 | > 100 µM (inactive)
48 | COc1ccc(Br)c(-c2nc(CS(=O)(=O)c3ccc(F)cc3)no2)c1 | > 100 µM (inactive)

Row | SMILES | AC50
49 | O=C(Cc1coc2cc(O)ccc12)N1CCN(S(=O)(=O)c2ccc(Br)cc2)CC1 | > 100 µM (inactive)
50 | O=C(CCc1ccccc1)Nc1sc2c(c1C(=O)O)CCCC2 | > 100 µM (inactive)
51 | CCOc1ccccc1/C=C/c1cc(C(=O)O)c2ccccc2n1 | > 100 µM (inactive)
52 | CC(=O)c1c(C)[nH]c(C(=O)Nc2nc(C)cs2)c1C | > 100 µM (inactive)
53 | COc1cc(SC)ccc1C(=O)N1CCN(c2ccccc2F)CC1 | > 100 µM (inactive)
54 | CCN(CC)S(=O)(=O)c1ccc(O)c(C(=O)OCC(=O)NC23CC4CC(CC(C4)C2)C3)c1 | > 100 µM (inactive)
55 | CCC(=O)c1ccc(OCC(=O)Nc2nc(C)cs2)cc1 | > 100 µM (inactive)
56 | NC(=O)c1nsc(C(=O)N(c2ccccc2F)C(C(=O)NCc2ccc(F)cc2)c2ccc(O)cc2)c1N (stereo not drawn) | > 100 µM (inactive)
57 | C=CCn1c(CCSCc2ccc(OC)c(C)c2)n[nH]c1=S | > 100 µM (inactive)
58 | O=C(CSc1nc2scc(-c3ccccc3)c2c(=O)[nH]1)N1CCCCC1 | > 100 µM (inactive)
59 | COC(=O)c1c(NC(=O)c2ccccc2C(=O)O)sc2c1CCC2 | > 100 µM (inactive)
60 | COc1ccc(NC(=O)CN(c2ccccc2OC)S(=O)(=O)c2cccs2)cc1Cl | > 100 µM (inactive)
61 | O=C(c1ccc(-n2cccn2)cc1)N1CCc2ccccc2C1 | > 100 µM (inactive)
62 | COc1ccc(-c2ccc3ccccc3n2)cc1OC | > 100 µM (inactive)
63 | COc1ccc(-c2csc(NC(=O)CC(NC(C)=O)c3ccccc3)n2)cc1OC (stereo not drawn) | > 100 µM (inactive)
64 | CCCCc1ccc(S(=O)(=O)Nc2ccc(C)c(NS(C)(=O)=O)c2)cc1 | > 100 µM (inactive)
65 | CCOc1ccc(NC(=O)CN(C)CC(=O)Nc2ccc(Br)cc2F)cc1OCC | > 100 µM (inactive)
66 | Cc1ccc(C(=O)OCC(=O)c2c[nH]c3ccccc23)cc1NC(=O)c1ccco1 | > 100 µM (inactive)
67 | CCc1ccc(NC(=O)CCc2c(C)nn(-c3ccc(N4CCCCC4)nn3)c2C)cc1 | > 100 µM (inactive)
68 | O=S(=O)(NC1c2cccc3cccc(c23)C1Sc1ncccn1)c1ccccc1 (stereo not drawn) | > 100 µM (inactive)
69 | CCN(C(=O)COC(=O)c1cn(-c2ccccc2)nc1-c1ccccc1)C1CCS(=O)(=O)C1 (stereo not drawn) | > 100 µM (inactive)
70 | CCOC(=O)c1nc(S(C)(=O)=O)ncc1Cl | > 100 µM (inactive)
71 | Cc1ccc(NC(=O)CN(C)S(=O)(=O)c2cccc3cccnc23)cc1F | > 100 µM (inactive)
72 | CCOc1ccccc1N1CCN(Cc2cn[nH]c2-c2ccc(F)cc2)CC1 | > 100 µM (inactive)

Row | SMILES | AC50
73 | Cc1cccc(-c2ccc([C@H]3[C@@H](CO)N4CCCCN(S(=O)(=O)c5ccccc5C)C[C@H]34)cc2)c1 | > 52 µM (inactive)
74 | COc1ccc(NC(=O)CN(c2ccccc2)S(=O)(=O)c2ccccc2)c(OC)c1 | > 100 µM (inactive)
75 | Cc1ccc(S(=O)(=O)NCc2c(-c3ccccc3)noc2C)cc1 | > 100 µM (inactive)
76 | CC1(C(=O)NS(=O)(=O)c2cccc(Cl)c2)CCN1C(=O)C1(c2ccc(Cl)cc2)CCC1 (stereo not drawn) | > 100 µM (inactive)
77 | CCOC(=O)c1[nH]c2ccccc2c1NC(=O)c1ccc(Br)o1 | > 100 µM (inactive)
78 | Clc1ccc(-c2nc3ccc(Br)cn3c2Cc2ccsc2)cc1 | > 100 µM (inactive)
79 | COc1ccccc1Cn1c(=S)[nH]c2ccc(F)cc2c1=O | > 100 µM (inactive)
80 | O=C(Nc1cccc(O)c1)c1cc(-c2ccccc2Cl)on1 | > 100 µM (inactive)
81 | CCOc1ccc(S(=O)(=O)N(C)c2ccc(OCC(=O)Nc3ccc4[nH]c(=O)[nH]c4c3)cc2)cc1 | > 100 µM (inactive)
82 | CC1=Nc2cc(C(=O)NCC3CCCO3)ccc2Sc2ccc(Br)cc21 (stereo not drawn) | > 100 µM (inactive)
83 | CN(CCOc1ccccc1)S(=O)(=O)c1ccccc1C#N | > 100 µM (inactive)
84 | Cc1ccc2nc(SCC(=O)Nc3c(F)cccc3F)[nH]c2c1 | > 100 µM (inactive)
85 | COc1ccc(CNC(=O)Cc2cn(C)c3ccccc23)c(OC)c1 | > 100 µM (inactive)
86 | COC(=O)COc1ccc(S(=O)(=O)N2CCc3ccccc3C2)cc1C | > 100 µM (inactive)
87 | COc1cc(NC(=O)c2ccc([N+](=O)[O-])o2)ccc1NC(=O)c1ccco1 | > 100 µM (inactive)
88 | O=C(COC(=O)c1n[nH]c2ccccc12)Nc1cccc(S(=O)(=O)N2CCOCC2)c1 | > 100 µM (inactive)
89 | Cc1cc(Br)ccc1SCC(=O)OCC(=O)NCc1ccco1 | > 100 µM (inactive)
90 | CC(=O)Nc1ccc(Nc2nc(C)c([N+](=O)[O-])c(N(C)c3ccccc3)n2)cc1 | > 100 µM (inactive)
91 | CCC(=O)Nc1sc(Cc2ccc3c(c2)OCO3)c(C)c1C(N)=O | > 100 µM (inactive)
92 | CC(C)(C)C1CCC(OCC(O)CN2CCN(c3ccccn3)CC2)CC1 (stereo not drawn) | > 100 µM (inactive)
93 | O=C(CCCSc1nc2ccccc2s1)NCc1ccc2c(c1)OCO2 | > 100 µM (inactive)
